Here are results for 8 compounds from ChEMBL document CHEMBL5029172, “Neopentyl Glycol as a Scaffold to Provide Radiohalogenated Theranostic Pairs of High In Vivo Stability” (J Med Chem, 2021).

Bounds are passed on as bounds.

The nature of data set [1]: Metabolic stability in human liver microsomes assessed as intact fractions at […] preincubated for 5 min measured by TLC followed by RP-HPLC. The format is ADME, Microsome. The following applies: read-out: Activity. (In general: Liver microsomes are vesicles of endoplasmic reticulum, rich in cytochrome P450 enzymes.)
A short description of data set [2]: Metabolic stability in mouse liver microsomes assessed as intact fractions at […] preincubated for 5 min measured by TLC followed by RP-HPLC. The data set is classed as ADME, Microsome. Particulars: read-out: Activity; call rule not given here.
A short description of data set [3]: Metabolic stability in mouse liver microsomes assessed as retention time at […] measured after 5 mins by RP-HPLC. The data set is classed as ADME, Microsome.
Data set [4] can be described thus: Metabolic stability in human liver microsomes assessed as retention time at […] measured after 5 mins by RP-HPLC. The data set is classed as ADME, Microsome.
The nature of data set [5]: Biodistribution in ICR mouse neck at 7.4 kBq, iv upto 24 hrs. The data set is classed as ADME, organism-based. Particulars: in vivo.
Data set [6] in a line: Biodistribution in ICR mouse stomach at 7.4 kBq, iv upto 24 hrs. The format is ADME, organism-based. The following applies: in vivo.
Data set [7] is described as follows: Biodistribution in ICR mouse assessed as blood clearance by measuring elimination rate at 7.4 kBq, iv upto 24 hrs. The format is ADME, organism-based. The following applies: in vivo.
Data set [8] in a line: Drug metabolism in ICR mouse urine assessed as metabolite during retention time measured at 7.4 kBq, iv after 6 hrs by RP-HPLC followed by HILIC-HPLC analysis. The format is ADME, organism-based.
Data set [9] in a line: Stability of compound in presence of GSH measured upto 24 hrs by TLC radiochromatogram. The data set is classed as physicochemical.
Data set [10] is described as follows: Metabolic stability in mouse liver microsomes assessed as intact fractions at 0.3 MBq preincubated for 5 min measured by TLC analysis. The data set is classed as ADME, Microsome. Particulars: read-out: Stability.
Data set [11] in a line: Metabolic stability in human liver microsomes assessed as intact fractions at 0.3 MBq preincubated for 5 min measured by TLC analysis. The data set is classed as ADME, Microsome. Particulars: read-out: Stability.

On to `CCC(C[125I])(CO[C@@H]1O[C@H](C(=O)O)[C@@H](O)[C@H](O)[C@H]1O)Cn1ccnc1[N+](=O)[O-]` (stereo partly specified), for which the remaining at 5 min in data set [1] and in data set [2] was more than 99.8% throughout. Also, the Retention_time in data set [3] and in data set [4] was less than 0.2 min each time.

As to `CCC(CC)(C[125I])Cn1ccnc1[N+](=O)[O-]`, the Drug uptake result in data set [5] and in data set [6] was “Active” each time. For the same compound, in data set [7], the CL result was “Not Active”. For the same compound, the remaining at 5 min in [1] worked out at 1.5%; in data set [2] it was 2.2%. For the same compound, the Drug excretion result in data set [8] was “Active”. Further, in data set [9], the Stability entry is given as “Stable”. The Retention_time was 52.6 min in [3] and 16.5 min in [4].

For the compound `O=[N+]([O-])c1nccn1CC(CO)(CO)C[211At]`, the Drug uptake entry in data set [5] and in data set [6] was “Not Active” each time. In addition, in data set [7], the CL result was “Active”. Further, the remaining at 5 min in data set [1] and in data set [2] was 96.9% throughout. Further, the Drug metabolism result in data set [8] is “Metabolite_Detected”. Also, the Stability entry in data set [9] is “Stable”. Also, the remaining at 5 min, 0.3 MBq in [10] and in data set [11] was 96.9% each time.

`O=C(NCCn1ccnc1[N+](=O)[O-])c1cccc([211At])c1`: the Drug uptake result in [5] and in data set [6] was “Active” in each case. In addition, the CL result in data set [7] is listed as “Not Active”.

Consider `O=[N+]([O-])c1nccn1CC(CO)(CO)C[125I]`, for which the Drug uptake result in data set [5] and in data set [6] was “Not Active” throughout. Further, in [7], the CL entry is “Active”. Moreover, the remaining at 5 min in data set [1] and in [2] was more than 99.8% in each case. Moreover, the Drug metabolism entry in data set [8] was “Metabolite_Detected”. Moreover, the Stability result in [9] is given as “Stable”. In addition, the Retention_time in [3] and in [4] was less than 0.2 min throughout.

In the case of `O=C(O)[C@H]1O[C@@H](OCC(CO)(C[125I])Cn2ccnc2[N+](=O)[O-])[C@H](O)[C@@H](O)[C@@H]1O` (stereo partly specified), the remaining at 5 min in data set [1] and in data set [2] was more than 99.8% throughout. Also, the Retention_time in data set [3] and in data set [4] was less than 0.2 min throughout.

As for `CCC(CO)(C[125I])Cn1ccnc1[N+](=O)[O-]` (stereo unspecified), the Drug uptake entry in data set [5] and in data set [6] was “Not Active” throughout. Also, the CL entry in data set [7] is “Active”. Moreover, the remaining at 5 min in [1] is more than 99.8%; in [2], 72%. The Drug excretion result in [8] was “Active”. The Stability entry in [9] was “Stable”. The Retention_time is reported as 23.5 min in data set [3] and less than 0.2 min in [4].

Turning to `O=C(NCCn1ccnc1[N+](=O)[O-])c1cccc([125I])c1`, the Drug uptake result in data set [5] and in [6] was “Not Active” throughout. Further, in data set [7], the CL entry is “Active”. The Drug excretion entry in data set [8] is “Not Active”.
